Experimental findings from US7368575B2, “6-alkylamino-2,2′-disubstituted-7,8-disubstituted-2H-1-benzopyran derivatives as 5-lipoxygenase inhibitor” (Korea Research Institute of Chemical Technology, priority 2004, dated 2008) are described below.

One assay concerns the target T1, 5-LO (5-lipoxygenase) (Homo sapiens, UniProt P09917).
T1 construct: made in house; host or cells: insect cells (lysate, 7 μg)
T1 sequence (P09917 1-674): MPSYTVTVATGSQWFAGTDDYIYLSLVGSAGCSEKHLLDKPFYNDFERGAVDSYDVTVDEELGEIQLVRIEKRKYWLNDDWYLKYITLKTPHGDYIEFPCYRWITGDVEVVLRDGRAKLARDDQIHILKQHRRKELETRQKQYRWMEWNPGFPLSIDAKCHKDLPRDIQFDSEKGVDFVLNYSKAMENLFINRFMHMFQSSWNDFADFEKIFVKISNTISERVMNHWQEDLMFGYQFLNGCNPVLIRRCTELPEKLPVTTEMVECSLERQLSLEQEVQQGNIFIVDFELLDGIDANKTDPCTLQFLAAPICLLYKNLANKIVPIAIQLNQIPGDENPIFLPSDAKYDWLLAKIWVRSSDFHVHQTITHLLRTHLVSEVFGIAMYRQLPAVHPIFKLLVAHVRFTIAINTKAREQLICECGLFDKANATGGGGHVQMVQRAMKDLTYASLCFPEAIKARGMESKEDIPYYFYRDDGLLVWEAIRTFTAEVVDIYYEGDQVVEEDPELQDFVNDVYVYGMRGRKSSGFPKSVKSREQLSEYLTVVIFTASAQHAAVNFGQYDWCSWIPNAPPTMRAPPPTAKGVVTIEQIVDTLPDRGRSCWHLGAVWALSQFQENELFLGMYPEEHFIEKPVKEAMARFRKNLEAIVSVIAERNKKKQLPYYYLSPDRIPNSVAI
The experiment in a line: 5-LO enzyme assay using a FOX reagent. The following applies: read-out: 5-LO (% inhibition at 1 μM); test sample 1 μM; lysates from 5-LO expressing insect cells; table does not say FOX or 234 nm readout. It is filed as biochemical. On the procedure:
Each test sample was added to lysates (7 μg) obtained from 5-LO expressing insect cells at a final concentration of 1 μM and reacted at room temperature for 3 min. Arachidonic acid as an enzyme substrate (40 μM) was added thereto and further reacted at room temperature for 4 min. Then, a FOX reagent (sulfuric acid 25 mM, xylenol orange 100 μM, FeSO4 100 μM; methanol: water=9:1) 100 μl was added thereto, and the absorbance of the reaction mixture was measured at 575 nm after 5 min.

Assay [1] has as its system arachidonic acid-induced ear inflammation (mouse ear edema model). Nature of the assay: Mouse ear edema model (arachidonic acid-induced; ear thickness and MPO activity). It is filed as in vivo. The conditions noted are these: ICR mouse, oral, 1 hr before arachidonic acid treatment, versus arachidonic acid-only control. On the procedure:
The inside of the right ear of ICR mouse (6 week old) was treated with 2 mg of arachidonic acid dissolved in 20 μl of acetone for 1 hr to induce an inflammation.
After 1 hr, the difference between the right ear treated with arachidonic acid and the nontreated left ear was measured with a microgauge. Further, to measure the amount of neutrophil penetrated into a tissue as a primary marker for inflammation induction, the myeloperoxidase (MPO) activity was measured. In particular, the tissue obtained from the arachidonic acid-treated right ear was homogenized in 50 mM phosphate buffer solution (pH 6.0) supplemented with 0.5% hexadecyltrimethylammonium bromide (HTAB), subjected to centrifugation, and then, the MPO activity of the supernatant was measured.
To measure in vivo activity of each test compound, each compound was dissolved in 0.5% methylcellulose (10 mL/kg) and orally administered to the mice 1 hr before the arachidonic acid treatment. After the arachidonic acid was treated for 1 hr, the ear thickness and MPO activity were measured, and in vivo activity of the test compound was estimated by comparing them with those of a control which was treated with arachidonic acid only without the test compoud.

As usually defined, the inhibition is the share of the control response that was lost under treatment.

On to `CCCC1(C)C=Cc2cc(NCc3ccccc3)ccc2O1` (stereo not shown) [1-81], for which the inhibition at 1 µM on 5-LO (5-lipoxygenase) turned out to be 61%. On the same count and under the same terms, for `COc1ccc(CNc2ccc3c(c2)C=CC(C)(CCc2ccccc2)O3)cc1` (stereo not shown) [1-124] the value was 84%; for `COc1ccc(CCC2(C)C=Cc3cc(NCc4ccccc4)ccc3O2)cc1` (stereo not shown) [1-161], 72%. For the compound `COc1ccc(CNc2cc3c(cc2C)OC(C)(CCc2ccccc2)C=C3)cc1` (stereo not shown) [1-324], at 5-LO (5-lipoxygenase), the inhibition at 1 µM was 51%. As to `CC(c1cc2ccccc2s1)N(O)C(N)=O` (stereo not shown) [Zileuton, reference compound], the “Animal model (% inhibition) Thickness (T) %” value in assay [1] (ear thickness) came out at 67%. The “Animal model (% inhibition) MPO %” value in assay [1] (myeloperoxidase activity of ear tissue) is recorded as 38%. At 5-LO (5-lipoxygenase), the inhibition at 1 µM was found to be 85%.
